Assay results taken from US20050009924A1 (priority 2003, published 2005).

How the values were obtained:
[1] = tested on: human hepatoma G2 cells; test: Cytotoxicity assay (XTT colorimetric), Hep G2; format: cell-based; conditions: Homo sapiens, HepG2; 48 h of drug exposure
[2] = tested on: rat glioma C6 cells; test: Cytotoxicity assay (XTT colorimetric), C6 cells; format: cell-based; conditions: Rattus norvegicus, C6; 48 h of drug exposure
[3] = tested on: transcriptional activity of hTERT; test: SEAP reporter assay of hTERT expression, PhTERT-SEAP (hTERT-BJ1); format: cell-based, human; conditions: Homo sapiens, hTERT-BJ1, read-out: Relative SEAP activity (%)
Outline: (§1)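 We treated G418-selected reporter cells with varying drug amounts for 24 h and measured SEAP in the heat-inactivated medium as the rate of 405 nm absorbance increase.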

[4] = tested on: transcriptional activity of hTERT; test: SEAP reporter assay of hTERT expression, PhTERT-SEAP (H1299); format: cell-based, human; conditions: Homo sapiens, NCI-H1299, H1299, read-out: Relative SEAP activity (%)
Outline: as §1

[5] = tested on: CMV promoter; test: SEAP reporter assay of CMV promoter activity, PCMV-SEAP (hTERT-BJ1); format: cell-based; conditions: Homo sapiens, read-out: Relative SEAP activity (%)
[6] = MTT relative viability, PCMV-SEAP (hTERT-BJ1) cells; format: cell-based; conditions: human, stable PCMV-SEAP reporter clone
Excerpt: Culture media were changed every 3 days. […] The stable clones were selected using G418.

[7] = MTT relative viability, PhTERT-SEAP (H1299) cells; conditions: human
Description: The tetrazolium reagent (MTT; 3-(4,5-di-methylthiazol)-2,5-diphenyl tetrazolium bromide, USB) was designed to yield a colored formazan upon metabolic reduction by viable cells. Approximately […] cells were plated onto each well of a 96-well plate and incubated in 5% CO2 at 37° C. for 24 h. To assess the in vitro cytotoxicity, each compound was dissolved in DMSO and prepared immediately before the experiments and was diluted into the complete medium before addition to cell cultures. Test compounds were then added to the culture medium for designated various concentrations. After 48 h, an amount of 25 μL of MTT was added to each well, and the samples were incubated at 37° C. for 4 h. A 100 μL solution of lysis buffer containing 20% SDS and 50% N,N-dimethylformamide was added to each well and incubated at 37° C. for another 16 h. The absorbency at 550 nm was measured using an ELISA reader.
Non small lung cancer cells H1299 (telomerase positive) were grown in RPMI 1640 media supplemented with 10% fetal bovine serum, 100 units/mL penicillin and 100 mg/mL streptomycin in a humidified atmosphere with 5% CO2 at 37° C. The hTERT immortalized hTERT-BJ1 (BD Biosciences Clontech)^39 were grown in DMEM media supplemented with 10% fetal calf serum, 100 units/mL penicillin and 100 mg/mL streptomycin, 1 mM sodium pyruvate, and 4 mM I-arginine in a humidified atmosphere with 5% CO2 at 37° C. Culture media were changed every 3 days. […] The stable clones derived from H1299 or hTERT-BJ1 were cultured using conditions that are similar to their parental cells.

[8] = MTT relative viability, PhTERT-SEAP (hTERT-BJ1) cells; conditions: human
[9] = tested on: iron-induced lipid peroxidation in rat brain homogenates; test: Iron-induced lipid peroxidation in rat brain homogenates; conditions: for Inhibition of LP(10 mM): mean percent inhibition (Table 3); for LP (%) (10 mM): relative percentage of inhibition (Table 1)

CCC(=O)Oc1cccc2c1C(=O)c1cccc(OC(=O)CC)c1C2=O [IIIa, 1,5-Bis(propionyloxy)-anthraquinone] showed an IC50 [1] of 4.1 ± 0.5 µM, an IC50 [2] of 21.1 ± 1.6 µM and an activity at 2.8 µM ([3]; 2.8 μM) of 131 ± 7%. It also gave an activity at 28 µM ([3]; 28 μM) of 152 ± 16.7%, an activity at 280 µM ([3]; 280 μM) of 161 ± 12.2% and an activity at 2.8 µM ([4]; 2.8 μM) of 103 ± 5.8%. It also gave an activity at 28 µM ([4]; 28 μM) of 107 ± 4.9%, an activity at 280 µM ([4]; 280 μM) of 97 ± 3.1% and an activity at 2.8 µM ([5]; 2.8 μM) of 101 ± 6%. The activity at 28 µM ([5]; 28 μM) was 112 ± 6%, the activity at 280 µM ([5]; 280 μM) was 138 ± 12% and the viability at 48 h, 2.8 µM ([6]; 2.8 μM) was 114 ± 16%. It also gave a viability at 48 h, 28 µM ([6]; 28 μM) of 110 ± 12%, a viability at 48 h, 280 µM ([6]; 280 μM) of 94 ± 21% and a melting point of 230 to 231 °C. For the same molecule, the viability at 48 h, 2.8 µM [7] was 116 ± 8%, the viability at 48 h, 28 µM [7] was 116 ± 7.4% and the viability at 48 h, 280 µM [7] was 87 ± 6.6%. The viability at 48 h, 2.8 µM [8] was 99 ± 11.9%, the viability at 48 h, 28 µM [8] was 109 ± 8.7% and the viability at 48 h, 280 µM [8] was 93 ± 10.8%. The “Inhibition of LP(10 mM)” value ([9]; 10 mM) was −100%.

With CC(C)(C)C(=O)Oc1cccc2c1C(=O)c1cccc(OC(=O)C(C)(C)C)c1C2=O [IIId, 1,5-Bis(pivaloyloxy)-anthraquinone] the IC50 [1] was 13.7 ± 1.8 µM, the IC50 [2] was 12 ± 1.5 µM and the activity at 2.4 µM ([3]; 2.4 μM) was 147 ± 11.1%. For the same molecule, the activity at 24 µM ([3]; 24 μM) was 165 ± 18.7%, the activity at 240 µM ([3]; 240 μM) was 141 ± 14.4% and the activity at 2.4 µM ([4]; 2.4 μM) was 105 ± 4.9%. The activity at 24 µM ([4]; 24 μM) was 78 ± 14.8%, the activity at 240 µM ([4]; 240 μM) was 80 ± 10.1% and the activity at 2.4 µM ([5]; 2.4 μM) was 102 ± 10%. For the same molecule, the activity at 24 µM ([5]; 24 μM) was 114 ± 18%, the activity at 240 µM ([5]; 240 μM) was 141 ± 11% and the viability at 48 h, 2.4 µM ([6]; 2.4 μM) was 115 ± 7%. It also gave a viability at 48 h, 24 µM ([6]; 24 μM) of 104 ± 8%, a viability at 48 h, 240 µM ([6]; 240 μM) of 103 ± 11% and a melting point of 166 to 167 °C. The viability at 48 h, 2.4 µM [7] was 106 ± 8.9%, the viability at 48 h, 24 µM [7] was 97 ± 7.1% and the viability at 48 h, 240 µM [7] was 70 ± 5.2%. For the same molecule, the viability at 48 h, 2.4 µM [8] was 94 ± 3.4%, the viability at 48 h, 24 µM [8] was 93 ± 6% and the viability at 48 h, 240 µM [8] was 100 ± 9%. The “Inhibition of LP(10 mM)” value ([9]; 10 mM) was −23 ± 1.1^ %.

With Nc1ccccc1Sc1cccc2c1C(=O)c1cccc(Sc3ccccc3N)c1C2=O [IIf, 1,5-Bis(o-aminophenylthio)-Anthraquinone] the IC50 [1] was 34 ± 1.7 µM, the IC50 [2] was 15.1 ± 1.7 µM and the activity at 2.2 µM [3] was 136 ± 17.5%. The activity at 22 µM [3] was 141 ± 18.2%, the activity at 220 µM [3] was 115 ± 29.7% and the activity at 2.2 µM [4] was 108 ± 12.2%. It also gave an activity at 22 µM [4] of 96 ± 8.4%, an activity at 220 µM [4] of 59 ± 6.6% and an activity at 2.2 µM ([5]; 2.2 μM) of 103 ± 8%. The activity at 22 µM ([5]; 22 μM) was 102 ± 10%, the activity at 220 µM ([5]; 220 μM) was 122 ± 8% and the viability at 48 h, 2.2 µM ([6]; 2.2 μM) was 108 ± 9%. For the same molecule, the viability at 48 h, 22 µM ([6]; 22 μM) was 109 ± 4%, the viability at 48 h, 220 µM ([6]; 220 μM) was 48 ± 6% and the melting point was 283 to 284 °C. It also gave a viability at 48 h, 2.2 µM [7] of 94 ± 3.5%, a viability at 48 h, 22 µM [7] of 50 ± 3.3% and a viability at 48 h, 220 µM [7] of 14 ± 2.5%. It also gave a viability at 48 h, 2.2 µM [8] of 103 ± 7.9%, a viability at 48 h, 22 µM [8] of 107 ± 5.5% and a viability at 48 h, 220 µM [8] of 25 ± 3.3%. The “LP (%) (10 mM)” value ([9]; 10 mM) was 5 ± 0.5%.

Molecule O=C1c2cccc(SCc3ccccc3)c2C(=O)c2cccc(SCc3ccccc3)c21 [IIi, 1,5-Bis(benzylthio)-anthraquinone] has an IC50 [1] of 41.5 ± 2.5 µM, an IC50 [2] of 38.2 ± 4.4 µM and an activity at 2.2 µM [3] of 117 ± 11.3%. For the same molecule, the activity at 22 µM [3] was 112 ± 9.3%, the activity at 220 µM [3] was 87 ± 11.1% and the activity at 2.2 µM [4] was 97 ± 6%. The activity at 22 µM [4] was 100 ± 7.2%, the activity at 220 µM [4] was 100 ± 12.9% and the melting point was 281 to 282 °C. For the same molecule, the viability at 48 h, 2.2 µM [7] was 83 ± 5.5%, the viability at 48 h, 22 µM [7] was 44 ± 0.9% and the viability at 48 h, 220 µM [7] was 34 ± 3.3%. For the same molecule, the viability at 48 h, 2.2 µM [8] was 121 ± 4.7%, the viability at 48 h, 22 µM [8] was 98 ± 4.2% and the viability at 48 h, 220 µM [8] was 47 ± 9.1%. The “Inhibition (%)” value ([9]; 0.01 mM) was 24 ± 0.8%, the “Inhibition (%)” value ([9]; 0.1 mM) was 60 ± 2.0% and the “Inhibition (%)” value ([9]; 1 mM) was 95%. For the same molecule, the “Inhibition (%)” value ([9]; 10 mM) was >100% and the “LP (%) (10 mM)” value ([9]; 10 mM) was >100%.
